Reference: US8859060B2, “Protective film of polarizer, polarizer and liquid crystal display device” (FUJIFILM Corporation, priority 2009, dated 2014)
Values joined by “and” are separate entries in the source; they are usually repeats but may differ in a detail not shown here. Equal entries are not always repeated.

Test: Acid dissociation constant by alkali titration in THF/water=6/4
Assay type: physicochemical
Settings: mixed solvent of THF/water=6/4 by volume at 25° C.
Description: Preferably, the acid dissociation constant of the organic acid in a mixed solvent of THF/water=6/4 by volume at 25° C. is from 2.5 to 7, more preferably from 2.5 to 6.5, even more preferably from 3 to 5.

Row | Compound | Acid dissociation constant
1 | O=C(O)C=Cc1ccccc1 [Cinnamic acid, cinnamic acid, reference compound] | 4.7
2 | O=C(O)CC(O)(CC(=O)O)C(=O)O [Citric acid, citric acid, reference compound] | 4.0
3 | O=C1NC(=O)N(Cc2ccccc2)C(=O)C1c1ccccc1 (stereo not shown) [Organic acid A] | 4.0 and 3.0
4 | CCC(Oc1ccc(C(C)(C)CC)cc1C(C)(C)CC)C(=O)Nc1cccc(C(=O)O)c1 (stereo not shown) [Organic acid B] | 6.6
5 | Nc1c(F)c(F)c(C(=O)O)c(F)c1F [Organic acid C] | 5.0
6 | CC(=O)Nc1c(I)cc(I)c(C(=O)O)c1I [Organic acid D] | 4.4
7 | CCC(C)(C)c1ccc(OCCCC(=O)O)c(C(C)(C)CC)c1 [Organic acid F, reference compound] | 7.3
8 | O=C1NS(=O)(=O)c2ccccc21 [Organic acid H] | 2.6
9 | O=C(O)c1ccc(C(=O)O)cc1 [Terephthalic acid, reference compound] | 4.5

Test: Solubility in water at 25° C.
Settings: not given

Row | Compound | Solubility to water
10 | O=C(O)c1ccc(C(=O)O)cc1 [Terephthalic acid, reference compound] | More than 1 wt %
